{
  "source": "paper PMC10337138",
  "about": "(Acta Neuropathologica Communications, 2023)",
  "conditions_in_all_cases": "1 mM ATP; inhibitor",
  "key": {"JAK2(JH1JH2)": {"molecular_target": "JAK2(JH1JH2) (Homo sapiens, UniProt O60674)", "sequence (O60674 whole entry)": "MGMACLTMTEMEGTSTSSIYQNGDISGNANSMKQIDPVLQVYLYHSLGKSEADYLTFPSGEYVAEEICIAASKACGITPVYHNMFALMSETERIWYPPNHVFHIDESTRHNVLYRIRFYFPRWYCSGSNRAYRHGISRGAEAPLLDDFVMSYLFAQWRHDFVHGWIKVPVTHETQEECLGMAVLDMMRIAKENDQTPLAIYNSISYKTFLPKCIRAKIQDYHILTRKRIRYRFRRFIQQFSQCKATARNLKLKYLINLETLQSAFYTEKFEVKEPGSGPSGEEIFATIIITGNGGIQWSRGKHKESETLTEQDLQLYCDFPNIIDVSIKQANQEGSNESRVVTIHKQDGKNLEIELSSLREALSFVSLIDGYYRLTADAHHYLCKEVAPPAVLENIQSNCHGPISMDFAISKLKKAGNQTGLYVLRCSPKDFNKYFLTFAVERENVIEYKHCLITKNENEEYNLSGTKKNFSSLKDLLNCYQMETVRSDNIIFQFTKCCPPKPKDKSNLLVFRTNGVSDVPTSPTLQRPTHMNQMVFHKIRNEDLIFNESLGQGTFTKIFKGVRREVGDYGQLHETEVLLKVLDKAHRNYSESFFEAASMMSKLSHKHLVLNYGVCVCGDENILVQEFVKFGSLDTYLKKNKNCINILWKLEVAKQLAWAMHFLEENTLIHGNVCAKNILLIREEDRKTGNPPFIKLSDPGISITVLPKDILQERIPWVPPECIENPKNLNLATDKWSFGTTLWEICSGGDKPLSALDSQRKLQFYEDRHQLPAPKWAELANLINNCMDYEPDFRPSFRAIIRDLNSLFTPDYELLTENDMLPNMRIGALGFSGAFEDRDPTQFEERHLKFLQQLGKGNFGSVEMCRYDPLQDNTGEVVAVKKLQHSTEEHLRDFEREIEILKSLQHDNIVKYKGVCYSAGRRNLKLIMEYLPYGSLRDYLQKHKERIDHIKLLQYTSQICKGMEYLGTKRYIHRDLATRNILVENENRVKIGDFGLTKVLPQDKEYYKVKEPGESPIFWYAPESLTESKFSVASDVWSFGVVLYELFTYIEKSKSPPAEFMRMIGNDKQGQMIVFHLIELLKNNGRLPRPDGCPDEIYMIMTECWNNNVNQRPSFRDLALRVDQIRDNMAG", "protocol": "(§1) Kinase selectivity panel Kinome profiling was conducted by AssayQuant Technologies (Marlboro, MA) using Sox chromophore technology and Sox-based peptide substrates developed for human kinases in a 384-well format. Compounds were tested at 1 µM in the presence of 1 mM ATP."}, "PRKCG/PKCG": {"molecular_target": "PRKCG/PKCG (Homo sapiens, UniProt P05129)", "protocol": "as §1"}, "ABL2": {"molecular_target": "ABL2 (Homo sapiens, UniProt P42684)", "protocol": "as §1"}, "ZAP70": {"molecular_target": "ZAP70 (Homo sapiens, UniProt P43403)", "protocol": "as §1"}, "MAPK10/JNK3": {"molecular_target": "MAPK10/JNK3 (Homo sapiens, UniProt P53779)", "protocol": "as §1"}, "HIPK1": {"molecular_target": "HIPK1 (Homo sapiens, UniProt Q86Z02)", "protocol": "as §1"}, "NEK6": {"molecular_target": "NEK6 (Homo sapiens, UniProt Q9HC98)", "protocol": "as §1"}, "DAPK3": {"molecular_target": "DAPK3 (Homo sapiens, UniProt O43293)", "protocol": "as §1"}, "DYRK4": {"molecular_target": "DYRK4 (Homo sapiens, UniProt Q9NR20)", "protocol": "as §1"}, "STK10/LOK": {"molecular_target": "STK10/LOK (Homo sapiens, UniProt O94804)", "protocol": "as §1"}, "FRK": {"molecular_target": "FRK (Homo sapiens, UniProt P42685)", "protocol": "as §1"}, "LATS2": {"molecular_target": "LATS2 (Homo sapiens, UniProt Q9NRM7)", "protocol": "as §1"}, "FGR": {"molecular_target": "FGR (Homo sapiens, UniProt P09769)", "protocol": "as §1"}, "EPHA7": {"molecular_target": "EPHA7 (Homo sapiens, UniProt Q15375)", "protocol": "as §1"}, "PRKCB1/PKCB1": {"molecular_target": "T1, PRKCB1/PKCB1 (Homo sapiens, UniProt P05771)", "T1 construct": "gene PRKCB", "protocol": "as §1"}, "DRAK2": {"molecular_target": "T2, DRAK2 (Homo sapiens, UniProt O94768)", "T2 construct": "gene STK17B", "protocol": "as §1"}, "ABL1": {"molecular_target": "ABL1 (Homo sapiens, UniProt P00519)", "protocol": "as §1"}, "CDK14": {"molecular_target": "CDK14 (Homo sapiens, UniProt O94921)", "protocol": "as §1"}, "MAP4K2/GCK": {"molecular_target": "MAP4K2/GCK (Homo sapiens, UniProt Q12851)", "sequence (Q12851 whole entry)": "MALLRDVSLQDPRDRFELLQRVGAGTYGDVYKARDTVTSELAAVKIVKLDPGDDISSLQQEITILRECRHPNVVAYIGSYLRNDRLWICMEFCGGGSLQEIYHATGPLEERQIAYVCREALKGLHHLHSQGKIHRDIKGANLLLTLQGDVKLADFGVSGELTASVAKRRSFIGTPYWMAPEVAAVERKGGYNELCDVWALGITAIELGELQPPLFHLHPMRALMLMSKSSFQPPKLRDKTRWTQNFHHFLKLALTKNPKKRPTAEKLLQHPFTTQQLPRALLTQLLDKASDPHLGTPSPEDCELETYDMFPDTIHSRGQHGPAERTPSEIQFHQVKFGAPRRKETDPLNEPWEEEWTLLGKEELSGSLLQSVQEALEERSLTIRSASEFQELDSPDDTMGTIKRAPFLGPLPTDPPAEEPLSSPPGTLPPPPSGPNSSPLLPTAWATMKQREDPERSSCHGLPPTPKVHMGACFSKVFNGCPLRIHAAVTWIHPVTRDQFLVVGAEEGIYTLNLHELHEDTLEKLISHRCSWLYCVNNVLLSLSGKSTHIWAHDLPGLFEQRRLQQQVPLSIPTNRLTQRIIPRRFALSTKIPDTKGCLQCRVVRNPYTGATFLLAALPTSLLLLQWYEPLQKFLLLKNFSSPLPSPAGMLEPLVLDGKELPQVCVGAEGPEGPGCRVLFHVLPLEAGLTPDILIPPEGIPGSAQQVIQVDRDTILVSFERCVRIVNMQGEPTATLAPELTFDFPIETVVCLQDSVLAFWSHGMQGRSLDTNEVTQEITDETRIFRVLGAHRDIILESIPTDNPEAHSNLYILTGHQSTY", "protocol": "as §1"}, "ALK": {"molecular_target": "ALK (Homo sapiens, UniProt Q9UM73)", "protocol": "as §1"}, "CSNK2A1/CK2A1": {"molecular_target": "CSNK2A1/CK2A1 (Homo sapiens, UniProt P68400)", "protocol": "as §1"}, "LCK": {"molecular_target": "LCK (Homo sapiens, UniProt P06239)", "protocol": "as §1"}, "MYO3A": {"molecular_target": "MYO3A (Homo sapiens, UniProt Q8NEV4)", "protocol": "as §1"}, "CDC42BPG/DMPK2": {"molecular_target": "CDC42BPG/DMPK2 (Homo sapiens, UniProt Q6DT37)", "protocol": "as §1"}, "PTK6/BRK": {"molecular_target": "PTK6/BRK (Homo sapiens, UniProt Q13882)", "sequence (Q13882 whole entry)": "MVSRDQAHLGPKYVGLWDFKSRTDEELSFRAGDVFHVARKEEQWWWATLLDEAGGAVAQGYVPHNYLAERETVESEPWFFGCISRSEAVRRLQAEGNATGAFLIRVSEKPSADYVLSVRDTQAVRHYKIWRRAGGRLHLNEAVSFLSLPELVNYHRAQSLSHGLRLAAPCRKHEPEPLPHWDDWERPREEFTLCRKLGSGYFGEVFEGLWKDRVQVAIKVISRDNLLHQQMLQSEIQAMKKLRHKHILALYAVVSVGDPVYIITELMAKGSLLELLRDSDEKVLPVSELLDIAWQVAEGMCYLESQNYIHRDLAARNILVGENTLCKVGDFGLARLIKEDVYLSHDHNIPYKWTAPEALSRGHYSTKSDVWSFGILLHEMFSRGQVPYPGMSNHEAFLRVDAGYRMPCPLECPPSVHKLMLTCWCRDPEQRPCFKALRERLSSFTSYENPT", "protocol": "as §1"}, "EEF2K": {"molecular_target": "EEF2K (Homo sapiens, UniProt O00418)", "protocol": "as §1"}, "NDR1": {"molecular_target": "T3, NDR1 (Homo sapiens, UniProt Q15208)", "T3 construct": "gene STK38", "protocol": "as §1"}, "MARK2": {"molecular_target": "MARK2 (Homo sapiens, UniProt Q7KZI7)", "protocol": "as §1"}, "TSSK2": {"molecular_target": "TSSK2 (Homo sapiens, UniProt Q96PF2)", "sequence (Q96PF2 whole entry)": "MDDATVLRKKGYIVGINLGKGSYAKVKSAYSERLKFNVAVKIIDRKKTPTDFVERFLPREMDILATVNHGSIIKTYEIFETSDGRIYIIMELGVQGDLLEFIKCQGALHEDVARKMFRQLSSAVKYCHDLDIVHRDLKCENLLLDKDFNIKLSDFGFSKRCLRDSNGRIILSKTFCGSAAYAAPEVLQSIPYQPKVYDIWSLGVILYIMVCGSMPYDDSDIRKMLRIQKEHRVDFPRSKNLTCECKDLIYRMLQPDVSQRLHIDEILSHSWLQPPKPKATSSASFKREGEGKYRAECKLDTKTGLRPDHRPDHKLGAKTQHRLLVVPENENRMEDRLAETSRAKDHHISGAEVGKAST", "protocol": "as §1"}, "EPHA6": {"molecular_target": "EPHA6 (Homo sapiens, UniProt Q9UF33)", "protocol": "as §1"}, "NEK2": {"molecular_target": "NEK2 (Homo sapiens, UniProt P51955)", "protocol": "as §1"}, "ERBB4/HER4": {"molecular_target": "ERBB4/HER4 (Homo sapiens, UniProt Q15303)", "sequence (Q15303 whole entry)": "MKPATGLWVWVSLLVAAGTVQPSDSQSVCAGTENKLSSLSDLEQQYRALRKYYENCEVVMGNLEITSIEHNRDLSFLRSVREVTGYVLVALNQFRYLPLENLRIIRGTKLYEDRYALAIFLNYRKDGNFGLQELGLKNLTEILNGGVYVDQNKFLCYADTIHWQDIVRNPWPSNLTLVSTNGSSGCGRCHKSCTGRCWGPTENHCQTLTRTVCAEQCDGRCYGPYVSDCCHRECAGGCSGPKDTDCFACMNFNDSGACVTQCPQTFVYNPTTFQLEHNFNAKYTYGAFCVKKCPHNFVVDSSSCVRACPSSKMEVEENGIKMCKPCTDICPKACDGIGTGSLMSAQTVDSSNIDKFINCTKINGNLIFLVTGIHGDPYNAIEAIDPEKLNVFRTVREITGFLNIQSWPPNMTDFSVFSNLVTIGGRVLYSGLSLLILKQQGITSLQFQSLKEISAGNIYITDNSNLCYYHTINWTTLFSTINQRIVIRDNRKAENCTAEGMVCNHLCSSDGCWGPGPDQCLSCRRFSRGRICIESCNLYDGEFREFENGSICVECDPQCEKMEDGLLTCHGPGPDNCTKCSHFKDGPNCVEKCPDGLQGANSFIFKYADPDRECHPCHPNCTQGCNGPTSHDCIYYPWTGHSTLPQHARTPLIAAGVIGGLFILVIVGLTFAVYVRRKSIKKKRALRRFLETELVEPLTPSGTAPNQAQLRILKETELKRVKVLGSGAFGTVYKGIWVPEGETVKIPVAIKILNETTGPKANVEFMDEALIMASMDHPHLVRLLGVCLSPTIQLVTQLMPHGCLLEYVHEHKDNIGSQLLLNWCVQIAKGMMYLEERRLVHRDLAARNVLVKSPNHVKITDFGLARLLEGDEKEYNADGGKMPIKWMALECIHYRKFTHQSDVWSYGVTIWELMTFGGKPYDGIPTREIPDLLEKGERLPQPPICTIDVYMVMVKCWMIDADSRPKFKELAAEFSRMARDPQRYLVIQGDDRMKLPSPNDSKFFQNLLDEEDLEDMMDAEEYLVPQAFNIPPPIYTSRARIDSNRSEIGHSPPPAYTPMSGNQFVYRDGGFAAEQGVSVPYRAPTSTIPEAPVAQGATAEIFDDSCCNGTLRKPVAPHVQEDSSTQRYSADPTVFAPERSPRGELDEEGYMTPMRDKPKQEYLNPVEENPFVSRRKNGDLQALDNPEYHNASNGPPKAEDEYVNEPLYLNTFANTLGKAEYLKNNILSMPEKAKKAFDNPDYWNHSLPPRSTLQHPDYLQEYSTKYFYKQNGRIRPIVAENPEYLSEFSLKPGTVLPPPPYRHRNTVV", "protocol": "as §1"}, "CAMKK1": {"molecular_target": "CAMKK1 (Homo sapiens, UniProt Q8N5S9)", "protocol": "as §1"}, "NEK7": {"molecular_target": "NEK7 (Homo sapiens, UniProt Q8TDX7)", "sequence (Q8TDX7 whole entry)": "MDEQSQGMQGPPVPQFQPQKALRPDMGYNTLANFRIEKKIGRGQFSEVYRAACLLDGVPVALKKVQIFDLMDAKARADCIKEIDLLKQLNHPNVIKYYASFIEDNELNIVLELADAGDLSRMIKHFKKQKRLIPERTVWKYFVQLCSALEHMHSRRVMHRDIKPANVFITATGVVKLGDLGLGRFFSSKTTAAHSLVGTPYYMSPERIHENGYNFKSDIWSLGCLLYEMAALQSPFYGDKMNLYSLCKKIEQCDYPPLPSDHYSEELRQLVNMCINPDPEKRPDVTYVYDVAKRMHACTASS", "protocol": "as §1"}, "NTRK2/TRKB": {"molecular_target": "NTRK2/TRKB (Homo sapiens, UniProt Q16620)", "protocol": "as §1"}, "STK3/MST2": {"molecular_target": "STK3/MST2 (Homo sapiens, UniProt Q13188)", "sequence (Q13188 whole entry)": "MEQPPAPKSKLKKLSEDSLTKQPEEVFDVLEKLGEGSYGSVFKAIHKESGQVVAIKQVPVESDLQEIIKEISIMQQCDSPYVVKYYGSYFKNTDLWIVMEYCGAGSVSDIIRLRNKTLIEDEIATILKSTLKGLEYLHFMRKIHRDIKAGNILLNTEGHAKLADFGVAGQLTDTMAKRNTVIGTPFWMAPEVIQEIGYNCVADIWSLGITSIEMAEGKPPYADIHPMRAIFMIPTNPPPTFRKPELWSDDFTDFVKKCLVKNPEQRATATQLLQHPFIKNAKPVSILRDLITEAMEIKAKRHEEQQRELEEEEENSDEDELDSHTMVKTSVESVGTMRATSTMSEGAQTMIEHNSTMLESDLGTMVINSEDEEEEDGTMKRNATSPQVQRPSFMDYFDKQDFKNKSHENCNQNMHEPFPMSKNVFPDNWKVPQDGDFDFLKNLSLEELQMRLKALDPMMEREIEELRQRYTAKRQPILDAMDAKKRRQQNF", "protocol": "as §1"}, "YSK4": {"molecular_target": "T4, YSK4 (Homo sapiens, UniProt Q56UN5)", "T4 construct": "gene MAP3K19", "protocol": "as §1"}, "MAP3K9": {"molecular_target": "MAP3K9 (Homo sapiens, UniProt P80192)", "protocol": "as §1"}},
  "data": [
    {"smiles": "C=CC(=O)N1CCC[C@@H](n2nc(-c3ccc(Oc4ccccc4)cc3)c3c(N)ncnc32)C1", "note": "[Ibrutinib]", "values": [
      {"measurement": "1 µM GBD00276 (ibrutinib), % inhibition", "setting": "JAK2(JH1JH2)", "result": 14.99, "unit": "%"},
      {"measurement": "1 µM GBD00276 (ibrutinib), % inhibition", "setting": "PRKCG/PKCG", "result": -20.25, "unit": "%"},
      {"measurement": "1 µM GBD00276 (ibrutinib), % inhibition", "setting": "ABL2", "result": -32.13, "unit": "%"},
      {"measurement": "1 µM GBD00276 (ibrutinib), % inhibition", "setting": "ZAP70", "result": -0.02061, "unit": "%"},
      {"measurement": "1 µM GBD00276 (ibrutinib), % inhibition", "setting": "MAPK10/JNK3", "result": -5.63, "unit": "%"},
      {"measurement": "1 µM GBD00276 (ibrutinib), % inhibition", "setting": "HIPK1", "result": 7.799, "unit": "%"},
      {"measurement": "1 µM GBD00276 (ibrutinib), % inhibition", "setting": "NEK6", "result": -7.047, "unit": "%"},
      {"measurement": "1 µM GBD00276 (ibrutinib), % inhibition", "setting": "DAPK3", "result": -3.598, "unit": "%"},
      {"measurement": "1 µM GBD00276 (ibrutinib), % inhibition", "setting": "DYRK4", "result": 6.524, "unit": "%"},
      {"measurement": "1 µM GBD00276 (ibrutinib), % inhibition", "setting": "STK10/LOK", "result": -13.28, "unit": "%"},
      {"measurement": "1 µM GBD00276 (ibrutinib), % inhibition", "setting": "FRK", "result": 45.62, "unit": "%"},
      {"measurement": "1 µM GBD00276 (ibrutinib), % inhibition", "setting": "LATS2", "result": 10.92, "unit": "%"},
      {"measurement": "1 µM GBD00276 (ibrutinib), % inhibition", "setting": "FGR", "result": 56.77, "unit": "%"},
      {"measurement": "1 µM GBD00276 (ibrutinib), % inhibition", "setting": "EPHA7", "result": -0.6285, "unit": "%"},
      {"measurement": "1 µM GBD00276 (ibrutinib), % inhibition", "setting": "PRKCB1/PKCB1", "result": -10.64, "unit": "%"},
      {"measurement": "1 µM GBD00276 (ibrutinib), % inhibition", "setting": "DRAK2", "result": 1.899, "unit": "%"},
      {"measurement": "1 µM GBD00276 (ibrutinib), % inhibition", "setting": "ABL1", "result": -21.62, "unit": "%"},
      {"measurement": "1 µM GBD00276 (ibrutinib), % inhibition", "setting": "CDK14", "result": 3.829, "unit": "%"},
      {"measurement": "1 µM GBD00276 (ibrutinib), % inhibition", "setting": "MAP4K2/GCK", "result": 1.626, "unit": "%"},
      {"measurement": "1 µM GBD00276 (ibrutinib), % inhibition", "setting": "ALK", "result": 3.723, "unit": "%"},
      {"measurement": "1 µM GBD00276 (ibrutinib), % inhibition", "setting": "CSNK2A1/CK2A1", "result": 11.48, "unit": "%"},
      {"measurement": "1 µM GBD00276 (ibrutinib), % inhibition", "setting": "LCK", "result": 75.25, "unit": "%"},
      {"measurement": "1 µM GBD00276 (ibrutinib), % inhibition", "setting": "MYO3A", "result": -10.26, "unit": "%"},
      {"measurement": "1 µM GBD00276 (ibrutinib), % inhibition", "setting": "CDC42BPG/DMPK2", "result": -2.51, "unit": "%"},
      {"measurement": "1 µM GBD00276 (ibrutinib), % inhibition", "setting": "PTK6/BRK", "result": 98.64, "unit": "%"},
      {"measurement": "1 µM GBD00276 (ibrutinib), % inhibition", "setting": "EEF2K", "result": 6.273, "unit": "%"},
      {"measurement": "1 µM GBD00276 (ibrutinib), % inhibition", "setting": "NDR1", "result": 6.051, "unit": "%"},
      {"measurement": "1 µM GBD00276 (ibrutinib), % inhibition", "setting": "MARK2", "result": 4.287, "unit": "%"},
      {"measurement": "1 µM GBD00276 (ibrutinib), % inhibition", "setting": "TSSK2", "result": 9.261, "unit": "%"},
      {"measurement": "1 µM GBD00276 (ibrutinib), % inhibition", "setting": "EPHA6", "result": 17.71, "unit": "%"},
      {"measurement": "1 µM GBD00276 (ibrutinib), % inhibition", "setting": "NEK2", "result": 2.418, "unit": "%"},
      {"measurement": "1 µM GBD00276 (ibrutinib), % inhibition", "setting": "ERBB4/HER4", "result": 98.2, "unit": "%"},
      {"measurement": "1 µM GBD00276 (ibrutinib), % inhibition", "setting": "CAMKK1", "result": 7.498, "unit": "%"},
      {"measurement": "1 µM GBD00276 (ibrutinib), % inhibition", "setting": "NEK7", "result": -0.8851, "unit": "%"},
      {"measurement": "1 µM GBD00276 (ibrutinib), % inhibition", "setting": "NTRK2/TRKB", "result": 21.53, "unit": "%"},
      {"measurement": "1 µM GBD00276 (ibrutinib), % inhibition", "setting": "STK3/MST2", "result": -10.97, "unit": "%"},
      {"measurement": "1 µM GBD00276 (ibrutinib), % inhibition", "setting": "YSK4", "result": 25.63, "unit": "%"},
      {"measurement": "1 µM GBD00276 (ibrutinib), % inhibition", "setting": "MAP3K9", "result": -1.576, "unit": "%"}
    ]}
  ]
}
